According to PubChem BioAssay (NCI):
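Method: 48-hour compound exposure of cells in 96-well plates, five concentrations, linear interpolation of endpoints. TGI: concentration producing complete growth inhibition.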

Assays:
Experiment in all cases: growth of human tumour cells (NCI), 48 h
SNB-19 CNS = tested on: SNB-19 CNS
SN12C renal = tested on: SN12C renal
SK-MEL-28 melanoma = tested on: SK-MEL-28 melanoma
NCI-H23 lung = tested on: NCI-H23 lung
RXF-631 renal = tested on: RXF-631 renal
ACHN renal = tested on: ACHN renal
SF-295 CNS = tested on: SF-295 CNS
SK-MEL-5 melanoma = tested on: SK-MEL-5 melanoma
IGROV1 ovarian = tested on: IGROV1 ovarian
HL-60(TB) leukemia = tested on: HL-60(TB) leukemia
SW-620 colon = tested on: SW-620 colon
NCI-H460 lung = tested on: NCI-H460 lung
UACC-257 melanoma = tested on: UACC-257 melanoma
OVCAR-5 ovarian = tested on: OVCAR-5 ovarian
M14 melanoma = tested on: M14 melanoma
SNB-75 CNS = tested on: SNB-75 CNS
SF-268 CNS = tested on: SF-268 CNS
786-0 renal = tested on: 786-0 renal
TK-10 renal = tested on: TK-10 renal
MOLT-4 leukemia = tested on: MOLT-4 leukemia
SNB-78 CNS = tested on: SNB-78 CNS
K-562 leukemia = tested on: K-562 leukemia
SK-MEL-2 melanoma = tested on: SK-MEL-2 melanoma
DLD-1 colon = tested on: DLD-1 colon
HOP-62 NSCLC = tested on: HOP-62 NSCLC
OVCAR-3 ovarian = tested on: OVCAR-3 ovarian
HT29 colon = tested on: HT29 colon
LOX IMVI melanoma = tested on: LOX IMVI melanoma
KM20L2 colon = tested on: KM20L2 colon
SF-539 CNS = tested on: SF-539 CNS
HOP-18 NSCLC = tested on: HOP-18 NSCLC
KM12 colon = tested on: KM12 colon
M19-MEL melanoma = tested on: M19-MEL melanoma
OVCAR-8 ovarian = tested on: OVCAR-8 ovarian
SR leukemia = tested on: SR leukemia
MALME-3M melanoma = tested on: MALME-3M melanoma
RPMI-8226 leukemia = tested on: RPMI-8226 leukemia
A549 NSCLC = tested on: A549 NSCLC
HCT-116 colon = tested on: HCT-116 colon
CAKI-1 renal = tested on: CAKI-1 renal
OVCAR-4 ovarian = tested on: OVCAR-4 ovarian
XF 498 CNS = tested on: XF 498 CNS
HCC-2998 colon = tested on: HCC-2998 colon
DMS 273 small cell lung = tested on: DMS 273 small cell lung
SK-OV-3 ovarian = tested on: SK-OV-3 ovarian
UACC-62 melanoma = tested on: UACC-62 melanoma
RXF 393 renal = tested on: RXF 393 renal
LXFL 529 NSCLC = tested on: LXFL 529 NSCLC
CCRF-CEM leukemia = tested on: CCRF-CEM leukemia
EKVX NSCLC = tested on: EKVX NSCLC
COLO 205 colon = tested on: COLO 205 colon
DMS 114 small cell lung = tested on: DMS 114 small cell lung
UO-31 renal = tested on: UO-31 renal
HOP-92 NSCLC = tested on: HOP-92 NSCLC
U251 CNS = tested on: U251 CNS
NCI-H522 lung = tested on: NCI-H522 lung

Measured: TGI

Cc1ccc(NC(=O)CC(=O)n2nc(-c3ccccc3)c(N=Nc3ccccc3[N+](=O)[O-])c2-c2ccccc2)cc1
> 100 µM: all assays above
